Measured values as given in PubChem BioAssay AID2060500 (Molecular Pharmacology Branch, DTP, NCI, 2025).

Tested on: 596521-263-R-J1-PDC complex spheroids, viability % of control
Assay: Anticancer human tumor 596521-263-R-J1-PDC patient-derived soft tissue sarcoma cell line growth inhibition [GQUAD]
Conditions: for IC50: curve of first compound; for viability, T/C: stronger effect = lower value
From the text: DNA G-quadruplex Stabilizer Agents in Combinations in Complex Spheroids
A high-throughput screen of multi-cell type tumor spheroids was designed to identify active combinations of DNA G-quadruplex stabilizer agents and targeted small molecules. Complex spheroids include a stromal component modeled by human endothelial cells (HUVEC) and fibroblasts modeled by human mesenchymal stem cells (MSCs). The concentration ranges selected for each drug and investigational agent were based upon clinically achievable concentrations if the clinical Cmax of the agent was known.
Compounds. The drugs and investigational agents: pidnarulex (CX-5461; NSC782164), APTO-253 (NSC789042), BRACO-19 (NSC847499), peposertib (NSC802822), ceralasertib (NSC780249), elimusertib (NSC800525), camonsertib (NSC841442), AZD-1390 (NSC803789), olaparib (NSC753686), talazoparib (NSC767125), ART-558 (NSC835418), sotorasib (NSC818433), MRTX-1133 (NSC836407), SN-38 (NSC673596), topotecan (NSC609699), etoposide (NSC141540), doxorubicin (NSC123127), gemcitabine (NSC613327), 5-fluorouracil (NSC19893), paclitaxel (NSC125973), vemurafenib (NSC761431), panobinostat (NSC761190), R-306465 (JNJ-16241199; NSC773264), adavosertib (NSC754352), TP-3654 (NSC805149), carboplatin (NSC241240), KSQ-4279 (NSC840948), and staurosporine (NSC755774) were obtained from the National Cancer Institute (NCI) Developmental Therapeutics Program Chemical Repository (34). The FDA-approved anticancer drug set is available from the NCI Developmental Therapeutics Program. […] The stock solutions were prepared in dimethyl sulfoxide (DMSO, Sigma-Aldrich, St. Louis, MO, cat. D2650) at 800-fold the tested concentration and stored at -70 degrees C prior to their use. All drugs and investigational agents were tested over a range starting from a high concentration at or near the clinical Cmax and decreasing in half-log increments. If the clinical Cmax for an agent had not been determined, the highest concentration tested was 10 microM.
2.3 Cell Culture. All cells were maintained in an incubator at 37 degrees C and 5% CO2 with 95% humidity. The PDC lines were cultured according to standard operating procedures established by the NCI PDMR. All PDCs were thawed and cultured in Matrigel-coated flasks prepared with a working solution of 1X Ham's F-12 nutrient mix, without supplementation (Invitrogen, cat. 11765054), 100 U/mL penicillin-streptomycin (Invitrogen, cat. 15140122), and 2.5% Matrigel (Corning Inc., cat. 354248) for the first three passages. The 857933-349-R-J2-PDC line was cultured in 6C/Colon 1B media, which includes advanced DMEM/F-12 (Thermo Fisher Scientific, cat. 12634028), 10 mM HEPES (Thermo Fisher Scientific, cat. 15630080), 1X GlutaMAX supplement (Thermo Fisher Scientific, cat. 35050061), 0.1 mg/mL primocin (InvivoGen, cat. ant-pm-2), 10% defined fetal bovine serum, heat inactivated (HyClone Laboratories Inc., cat. SH30070.03HI), 50% L-WRN conditioned media (ATCC, cat. CRL-3276), 1.25 mM N-Acetyl-L-cysteine (Sigma-Aldrich, cat. A9165), 10 mM nicotinamide (Sigma-Aldrich, cat. N0636), 1X B-27 supplement (Thermo Fisher Scientific, cat. 17504044), 1X N-2 supplement (Thermo Fisher Scientific, cat. 17502048), 10 microM Y-27632 dihydrochloride (Tocris Bioscience, cat. 1254), and 50 ng/mL human EGF recombinant protein (Thermo Fisher Scientific, cat. PHG0311). The 485176-168-R4-J1-PDC line was cultured in Panc media, which includes all 6C/Colon 1B media components plus 100 ng/mL human FGF-10 (Thermo Fisher Scientific, cat. 100-26), 500 nM SB-431542 (Selleckchem, cat. S1067), and gastrin (Tocris, cat. 3006).
[…]

[1] = second compound 0.0316 µM, first compound 0.0316 µM
[2] = second compound 0.0316 µM, first compound 0.1 µM
[3] = second compound 0.0316 µM, first compound 0.316 µM
[4] = second compound 0.0316 µM, first compound 1 µM
[5] = second compound 0.0316 µM, first compound 3.16 µM
[6] = second compound 0.0316 µM, first compound 10 µM
[7] = second compound 0.1 µM, first compound 0.0316 µM
[8] = second compound 0.1 µM, first compound 0.1 µM
[9] = second compound 0.1 µM, first compound 0.316 µM
[10] = second compound 0.1 µM, first compound 1 µM
[11] = second compound 0.1 µM, first compound 3.16 µM
[12] = second compound 0.1 µM, first compound 10 µM
[13] = second compound 0.316 µM, first compound 0.0316 µM
[14] = second compound 0.316 µM, first compound 0.1 µM
[15] = second compound 0.316 µM, first compound 0.316 µM
[16] = second compound 0.316 µM, first compound 1 µM
[17] = second compound 0.316 µM, first compound 3.16 µM
[18] = second compound 0.316 µM, first compound 10 µM
[19] = second compound 1 µM, first compound 0.0316 µM
[20] = second compound 1 µM, first compound 0.1 µM
[21] = second compound 1 µM, first compound 0.316 µM
[22] = second compound 1 µM, first compound 1 µM
[23] = second compound 1 µM, first compound 3.16 µM
[24] = second compound 1 µM, first compound 10 µM
[25] = second compound 3.16 µM, first compound 0.0316 µM
[26] = second compound 3.16 µM, first compound 0.1 µM
[27] = second compound 3.16 µM, first compound 0.316 µM
[28] = second compound 3.16 µM, first compound 1 µM
[29] = second compound 3.16 µM, first compound 3.16 µM
[30] = second compound 3.16 µM, first compound 10 µM
[31] = second compound 10 µM, first compound 0.0316 µM
[32] = second compound 10 µM, first compound 0.1 µM
[33] = second compound 10 µM, first compound 0.316 µM
[34] = second compound 10 µM, first compound 1 µM
[35] = second compound 10 µM, first compound 3.16 µM
[36] = second compound 10 µM, first compound 10 µM
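Further: spheroids exposed to drugs for 7 days before viability reading.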

CCCS(=O)(=O)Nc1ccc(F)c(C(=O)c2c[nH]c3ncc(-c4ccc(Cl)cc4)cc23)c1F + Cc1[nH]c2ccc(F)cc2c1-c1nc2c3cccnc3c3ncccc3c2[nH]1
IC50 (second compound 0.0316 µM): 504 nM
IC50 (second compound 0.1 µM): 358 nM
IC50 (second compound 0.316 µM): 836 nM
IC50 (second compound 1 µM): 498 nM
IC50 (second compound 3.16 µM): 376 nM
IC50 (second compound 10 µM): 419 nM
viability, T/C [1]: 107%
viability, T/C [2]: 73.5%
viability, T/C [3]: 56.2%
viability, T/C [4]: 41.7%
viability, T/C [5]: 40.5%
viability, T/C [6]: 40.2%
viability, T/C [7]: 89.3%
viability, T/C [8]: 74.2%
viability, T/C [9]: 51.8%
viability, T/C [10]: 36.8%
viability, T/C [11]: 42.8%
viability, T/C [12]: 31.1%
viability, T/C [13]: 112%
viability, T/C [14]: 81.4%
viability, T/C [15]: 61.1%
viability, T/C [16]: 44.4%
viability, T/C [17]: 46.3%
viability, T/C [18]: 33.1%
viability, T/C [19]: 84.4%
viability, T/C [20]: 81.6%
viability, T/C [21]: 57.2%
viability, T/C [22]: 38.4%
viability, T/C [23]: 44.4%
viability, T/C [24]: 29.7%
viability, T/C [25]: 92.6%
viability, T/C [26]: 70.4%
viability, T/C [27]: 53.2%
viability, T/C [28]: 37.6%
viability, T/C [29]: 37.9%
viability, T/C [30]: 32%
viability, T/C [31]: 74.6%
viability, T/C [32]: 58.5%
viability, T/C [33]: 58%
viability, T/C [34]: 38.1%
viability, T/C [35]: 39.3%
viability, T/C [36]: 30.4%

CC(=O)O[C@H]1C(=O)[C@@]2(C)[C@H]([C@H](OC(=O)c3ccccc3)[C@]3(O)C[C@H](OC(=O)[C@H](O)[C@@H](NC(=O)c4ccccc4)c4ccccc4)C(C)=C1C3(C)C)[C@]1(OC(C)=O)CO[C@@H]1C[C@@H]2O + Cc1cnc(CNC(=O)c2c(=O)c3ccc(N4CCCN(C)CC4)nc3n3c2sc2ccccc23)cn1
IC50 (second compound 0.0316 µM): < 31.6 nM
IC50 (second compound 0.1 µM): < 31.6 nM
IC50 (second compound 0.316 µM): < 31.6 nM
IC50 (second compound 1 µM): < 31.6 nM
IC50 (second compound 3.16 µM): < 31.6 nM
IC50 (second compound 10 µM): < 31.6 nM
viability, T/C [1]: 44%
viability, T/C [2]: 30.7%
viability, T/C [3]: 23.5%
viability, T/C [4]: 27.8%
viability, T/C [5]: 25.9%
viability, T/C [6]: 28%
viability, T/C [7]: 43.7%
viability, T/C [8]: 25.2%
viability, T/C [9]: 28.9%
viability, T/C [10]: 28.8%
viability, T/C [11]: 29.3%
viability, T/C [12]: 28.9%
viability, T/C [13]: 38.5%
viability, T/C [14]: 30.4%
viability, T/C [15]: 25.1%
viability, T/C [16]: 28.1%
viability, T/C [17]: 29%
viability, T/C [18]: 30.8%
viability, T/C [19]: 36.5%
viability, T/C [20]: 32.5%
viability, T/C [21]: 28.5%
viability, T/C [22]: 27.9%
viability, T/C [23]: 27.7%
viability, T/C [24]: 31.1%
viability, T/C [25]: 35.4%
viability, T/C [26]: 28.1%
viability, T/C [27]: 24.5%
viability, T/C [28]: 25.5%
viability, T/C [29]: 27.6%
viability, T/C [30]: 32.2%
viability, T/C [31]: 7.69%
viability, T/C [32]: 8.44%
viability, T/C [33]: 7.94%
viability, T/C [34]: 7.65%
viability, T/C [35]: 0.28%
viability, T/C [36]: 0.22%

COc1ccc([C@@H](O)c2cc(-c3ncnc4cc(N5CCOCC5)ccc34)c(F)cc2Cl)nn1 + Cc1cnc(CNC(=O)c2c(=O)c3ccc(N4CCCN(C)CC4)nc3n3c2sc2ccccc23)cn1
IC50 (second compound 0.0316 µM): 8520 nM
IC50 (second compound 0.1 µM): 1510 nM
IC50 (second compound 0.316 µM): 1690 nM
IC50 (second compound 1 µM): 635 nM
IC50 (second compound 3.16 µM): 294 nM
IC50 (second compound 10 µM): < 31.6 nM
viability, T/C [1]: 99.7%
viability, T/C [2]: 80.7%
viability, T/C [3]: 79.4%
viability, T/C [4]: 77.2%
viability, T/C [5]: 49.2%
viability, T/C [6]: 51.3%
viability, T/C [7]: 92.3%
viability, T/C [8]: 88.4%
viability, T/C [9]: 67.5%
viability, T/C [10]: 50.5%
viability, T/C [11]: 54.6%
viability, T/C [12]: 38.7%
viability, T/C [13]: 84%
viability, T/C [14]: 77.6%
viability, T/C [15]: 63.6%
viability, T/C [16]: 57.1%
viability, T/C [17]: 42.9%
viability, T/C [18]: 37.4%
viability, T/C [19]: 64.5%
viability, T/C [20]: 58.2%
viability, T/C [21]: 58.9%
viability, T/C [22]: 42.5%
viability, T/C [23]: 43%
viability, T/C [24]: 37.6%
viability, T/C [25]: 55.7%
viability, T/C [26]: 59.6%
viability, T/C [27]: 45.2%
viability, T/C [28]: 45.9%
viability, T/C [29]: 40.3%
viability, T/C [30]: 35.4%
viability, T/C [31]: 45.4%
viability, T/C [32]: 27.4%
viability, T/C [33]: 42%
viability, T/C [34]: 38.3%
viability, T/C [35]: 36.3%
viability, T/C [36]: 11%
